Results published in paper PMC10338423, “Synthesis and preclinical evaluation of a novel fluorine-18 labeled small-molecule PET radiotracer for imaging of CXCR3 receptor in mouse models of atherosclerosis” (EJNMMI Research, 2023).

Tests used:
CXCR3 [1] = biological target: T1, CXCR3 (Mus musculus, UniProt O88410); assay: PET/CT imaging, baseline and self-blocking, in ApoE KO mice on high-fat diet; type: in vivo
T1 construct: tissue Jackson Laboratory (mice); host or cells: In vivo: atherosclerotic abdominal aorta and brown adipose tissue of ApoE KO mice (high-fat diet) and C57BL/6 control mice (normal diet)
T1 sequence (O88410 1-367): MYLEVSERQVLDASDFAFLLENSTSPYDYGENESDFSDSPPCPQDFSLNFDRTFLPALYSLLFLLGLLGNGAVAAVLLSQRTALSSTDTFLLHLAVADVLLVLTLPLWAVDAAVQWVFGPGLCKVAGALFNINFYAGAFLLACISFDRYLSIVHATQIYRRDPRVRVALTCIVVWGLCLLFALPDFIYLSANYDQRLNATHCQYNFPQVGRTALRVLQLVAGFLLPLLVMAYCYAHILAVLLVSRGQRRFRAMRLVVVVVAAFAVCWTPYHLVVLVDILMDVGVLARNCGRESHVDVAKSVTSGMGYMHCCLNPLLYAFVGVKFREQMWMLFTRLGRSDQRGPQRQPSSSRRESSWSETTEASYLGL
Text: (§1) [^18F]1 was further evaluated for reliability as a CXCR3 radiotracer using mouse models of atherosclerosis. For this purpose, we tested [^18F]1 in ApoE KO mice, a widely used murine model of atherosclerosis. Six-week-old ApoE KO male mice (N = 6) and C57BL/6 male control mice (i.e., a background strain of ApoE KO mouse, ApoE-wildtype control; N = 6) were purchased from Jackson Laboratory (Bar Harbor, ME). The ApoE KO mice were placed on a high-fat diet over 12 weeks to accelerate atherosclerosis development. […] At 12 weeks, PET/computed tomography (CT) studies were performed using both mice groups. Dynamic PET scans (90 min acquisition) were performed beginning 5 min after the intravenous injection of [^18F]1 followed by a ~ 10 min CT scan. Usually, one week after the baseline PET/CT scan, the corresponding blocking PET/CT scan was performed. This time, 1·HCl salt (5 mg/kg) was used as a blocking agent and intravenously injected 5 min before the radiotracer injection.
(§2) All animal studies were performed at the VA Biomolecular Imaging Center (VA BIC) at the Harry S. Truman Memorial Veterans’ Hospital (Columbia, MO). Six-week-old ApoE KO male mice and C57BL/6 control male mice were purchased from Jackson Laboratory. All mice were housed in the controlled vivarium during the studies. All ApoE KO mice were fed with high-fat chow that contained 42% fat, 34% of that contained unsaturated fat (TD.88137, Envigo, Indianapolis, IN), one week after the arrival and continued the feeding until the end of the study. The first PET/CT scans were performed 12 weeks after initiating the high-fat diet, and the second PET/CT scans that used 1·HCl as a blocking agent were performed at least one week after the first PET/CT scans. Meanwhile, C57BL/6 control mice were fed with normal chow over the same schedule to match with ApoE KO mice.
(§3) Maximum intensity micro-PET images were obtained on a Siemens INVEON small-animal PET/CT scanner (Siemens Medical Solutions USA, Inc., Malvern, PA). […] The micro-PET data was analyzed using Siemens Inveon Research Workplace, General Analysis software. […]

CXCR3 [2] = biological target: T1, CXCR3; assay: PET/CT imaging, baseline and self-blocking, in C57BL/6 control mice on normal diet; type: in vivo
Text: as §1, §2, §3

[3] = Stability of formulated radiotracer (HPLC); type: physicochemical; details: formulated in 10% EtOH/0.9% saline containing 0.5% sodium ascorbate
Procedure: The addition of AcOH and the high temperature was necessary for an improved RCC. A usual C18 SPE workup followed by semi-preparative reverse phase HPLC purification afforded [^18F]1 in RCY of 13 ± 2% (n = 10) at the end of synthesis (EOS). The semi-preparative HPLC chromatograms of [^18F]1 is shown in Additional file 1: Fig. S1(a). The HPLC purification was performed using a Phenomenex Gemini C18 Semi-preparative column (5 µm, 250 × 10 mm) equipped with UV (254 nm) and radioactivity detectors by eluting with an isocratic mobile phase composed of 65% MeCN, 5% MeOH, 30% water, and 0.1% triethylamine (NEt3) at a flow rate of 5 mL/min. The radioactive [^18F]1 was collected between 16 and 17 min and was well-separated from the rest of the UV and radioactivity peaks. After the purification, the collected product was formulated in 10% EtOH/0.9% saline containing 0.5% sodium ascorbate. The total radiosynthesis time was 100 min at the EOS. The final reformulated aliquot was further characterized by HPLC analysis using a Phenomenex Gemini C18 analytical column (5 µm, 250 × 4.6 mm) equipped with UV and radioactivity detectors by eluting with the same HPLC solvent at a flow rate of 1 mL/min. The radioactive peak was eluted between 15 and 17 min. […]

[4] = 1·HCl 5 mg/kg i.v. 5 min before tracer
[5] = blocking study with 1·HCl 5 mg/kg i.v., stated for both groups

With CC[C@H]1CN(c2ncc(-c3nnco3)cc2Cl)CCN1C1CCN(Cc2ccc(Cl)cc2[18F])CC1 [[^18F]1] the “blocking effect in BAT (from AUC of TACs)” value (CXCR3 [1]; [4]) was 23.4%, the “blocking effect in atherosclerotic abdominal aorta (from AUC of TACs)” value (CXCR3 [1]; [4]) was 16.9% and the “standard uptake value (SUV), BAT region” value (CXCR3 [1]; [5]) was 1.2–1.5. The “blocking effect in BAT (from AUC of TACs)” value (CXCR3 [2]; [4]) was 45.9%, the “blocking effect in abdominal aorta (from AUC of TACs)” value (CXCR3 [2]; [4]) was 4.7% and the “standard uptake value (SUV), BAT region” value (CXCR3 [2]; [5]) was 1.2–1.5. The “time radiotracer is stable” value [3] was “more than 10 h”.
